In PubChem BioAssay (NCI):
Values joined by “and” are separate entries in the source; they are usually repeats but may differ in a detail not shown here. Equal entries are not always repeated.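 Step 1: Grow cells in 96-well plates. Step 2: Expose to compound for 48 hours at 5 concentrations. Step 3: Interpolate endpoints linearly; if unreached, use highest concentration. At the GI50, growth is halved. TGI is the concentration that stops growth completely.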

What follows are compounds tested on K-562 leukemia (assay: DTP human tumour cell line panel, 48 h).
Work on `COc1ccc(/C(=N/Nc2ccc([N+](=O)[O-])cc2)Sc2cc(Cl)c(C)cc2S(N)(=O)=O)cc1` yielded a GI50 of 4.67 µM and a TGI of 15.4 µM. Work on `NC(N)=NC(N)=Nc1cc2ccccc2c2ccccc12` yielded a GI50 of 4.34 µM and a TGI of 21.9 µM. `CC12CCCC(CC(=O)c3[nH]c4ccccc4c31)C2` (stereo not drawn) was tested, and the GI50 was 0.345 µM and the TGI was > 45.2 µM. In the case of `CN1C(NC(=O)c2ccc(Cl)nc2)=NS(=O)(=O)c2cc(Cl)ccc21`, the GI50 is reported as > 100 µM and the TGI is reported as > 100 µM. With `Cc1cc(C2CCCCC2)n(O)c(=O)c1` the TGI was > 100 µM. With `COC(=O)C(=O)C(C(=O)C=C(C)C)C(=O)C(=O)Nc1ccc(Cl)cc1C` (stereo not drawn) the TGI was > 100 µM. `CC(=O)[O][Hg][c]1c(C)c(C)c(C)c(C)c1C` gave a GI50 of 0.468 µM and a TGI of 2.63 µM. With `CN(C)C(=S)SN(C)C(=O)Nc1ccccc1` the TGI was > 100 µM. With `Cc1ccc(C(=O)/C=C/c2ccccc2O)c(C)c1` the TGI was > 100 µM. In the case of `COc1cc2c(/C=C3/C(=O)Nc4cccc(Cl)c43)c(Cl)n(Cc3ccccc3)c2cc1C`, the GI50 is reported as 5.22 µM and the TGI is reported as > 100 µM. With `Cc1[nH]c(N=Nc2ccccc2)nc1N=Nc1ccccc1` the GI50 was 3.55 µM and the TGI was > 100 µM. `COc1ccc(-c2cc3c(nn2)-c2ccccc2C3=O)cc1` was tested, and the GI50 was > 100 µM and the TGI was > 100 µM. With `N#Cc1cnsc1` the TGI was > 100 µM. For `O=C1C2=C(CC3C(C2)C3(Br)Br)C(=O)C2=C1CC1C(C2)C1(Br)Br` (stereo not drawn), the TGI was > 100 µM. For `COc1ccc(C2CC(=O)c3c(O)c(OC)c(OC)c(OC)c3O2)c(O)c1` (stereo not drawn), the GI50 was 0.0378 µM and the TGI was 26.2 µM. `CC(=O)c1ccc(NC(=O)/C(Cc2ccccn2)=N/NC(=O)C[N+](C)(C)C)cc1` was tested, and the TGI was > 100 µM. `CCc1cccc(C)c1NC(C)=O` was tested, and the TGI was > 100 µM.

The compounds below were run on HOP-62 NSCLC (assay: DTP human tumour cell line panel, 48 h).
`COc1ccc(/C(=N/Nc2ccc([N+](=O)[O-])cc2)Sc2cc(Cl)c(C)cc2S(N)(=O)=O)cc1` showed a GI50 of 5.94 µM and a TGI of 16.4 µM. Compound `NC(N)=NC(N)=Nc1cc2ccccc2c2ccccc12` has a GI50 of 8.53 µM and a TGI of 22.8 µM. Compound `CC12CCCC(CC(=O)c3[nH]c4ccccc4c31)C2` (stereo not drawn) has a GI50 of 0.813 µM and a TGI of 50 µM. In the case of `CN1C(NC(=O)c2ccc(Cl)nc2)=NS(=O)(=O)c2cc(Cl)ccc21`, the GI50 is reported as > 100 µM and the TGI is reported as > 100 µM. For `Cc1cc(C2CCCCC2)n(O)c(=O)c1`, the GI50 was 0.913 µM and the TGI was 40 µM. `COC(=O)C(=O)C(C(=O)C=C(C)C)C(=O)C(=O)Nc1ccc(Cl)cc1C` (stereo not drawn) was tested, and the TGI was > 100 µM. With `CC(=O)[O][Hg][c]1c(C)c(C)c(C)c(C)c1C` the GI50 was 2.05 µM and the TGI was 4.35 µM. For `CN(C)C(=S)SN(C)C(=O)Nc1ccccc1`, the TGI was > 100 µM. For `Cc1ccc(C(=O)/C=C/c2ccccc2O)c(C)c1`, the TGI was > 100 µM. Work on `COc1cc2c(/C=C3/C(=O)Nc4cccc(Cl)c43)c(Cl)n(Cc3ccccc3)c2cc1C` yielded a GI50 of 9.73 µM and a TGI of 53.9 µM. Compound `Cc1[nH]c(N=Nc2ccccc2)nc1N=Nc1ccccc1` has a GI50 of 4.09 µM and a TGI of 17.1 µM. In the case of `COc1ccc(-c2cc3c(nn2)-c2ccccc2C3=O)cc1`, the GI50 is reported as > 100 µM and the TGI is reported as > 100 µM. With `N#Cc1cnsc1` the TGI was > 100 µM. In the case of `O=C1C2=C(CC3C(C2)C3(Br)Br)C(=O)C2=C1CC1C(C2)C1(Br)Br` (stereo not drawn), the TGI is reported as > 100 µM. In the case of `COc1ccc(C2CC(=O)c3c(O)c(OC)c(OC)c(OC)c3O2)c(O)c1` (stereo not drawn), the GI50 is reported as 0.211 µM and the TGI is reported as 28.2 µM. `CC(=O)c1ccc(NC(=O)/C(Cc2ccccn2)=N/NC(=O)C[N+](C)(C)C)cc1` was tested, and the TGI was > 100 µM. In the case of `CCc1cccc(C)c1NC(C)=O`, the TGI is reported as > 100 µM.

The compounds below were run on EKVX NSCLC (assay: DTP human tumour cell line panel, 48 h).
Compound `COc1ccc(/C(=N/Nc2ccc([N+](=O)[O-])cc2)Sc2cc(Cl)c(C)cc2S(N)(=O)=O)cc1` has a GI50 of 3.34 µM and a TGI of 10.9 µM. For `NC(N)=NC(N)=Nc1cc2ccccc2c2ccccc12`, the GI50 was 12 µM and the TGI was 29.1 µM. For `CC12CCCC(CC(=O)c3[nH]c4ccccc4c31)C2` (stereo not drawn), the GI50 was 1.55 µM and the TGI was > 100 µM. With `CN1C(NC(=O)c2ccc(Cl)nc2)=NS(=O)(=O)c2cc(Cl)ccc21` the GI50 was > 100 µM and the TGI was > 100 µM. With `Cc1cc(C2CCCCC2)n(O)c(=O)c1` the GI50 was 2.4 µM and the TGI was > 100 µM. With `COC(=O)C(=O)C(C(=O)C=C(C)C)C(=O)C(=O)Nc1ccc(Cl)cc1C` (stereo not drawn) the TGI was > 100 µM. For `CC(=O)[O][Hg][c]1c(C)c(C)c(C)c(C)c1C`, the GI50 was 1.89 µM and the TGI was 3.54 µM. `CN(C)C(=S)SN(C)C(=O)Nc1ccccc1` was tested, and the TGI was > 100 µM. `Cc1ccc(C(=O)/C=C/c2ccccc2O)c(C)c1` was tested, and the TGI was > 100 µM. With `COc1cc2c(/C=C3/C(=O)Nc4cccc(Cl)c43)c(Cl)n(Cc3ccccc3)c2cc1C` the GI50 was 6.84 µM and the TGI was > 26.4 µM. `Cc1[nH]c(N=Nc2ccccc2)nc1N=Nc1ccccc1` gave a GI50 of 3.05 µM and a TGI of 29.9 µM. `COc1ccc(-c2cc3c(nn2)-c2ccccc2C3=O)cc1` was tested, and the TGI was > 10 µM. For `N#Cc1cnsc1`, the TGI was > 100 µM. In the case of `O=C1C2=C(CC3C(C2)C3(Br)Br)C(=O)C2=C1CC1C(C2)C1(Br)Br` (stereo not drawn), the TGI is reported as > 100 µM. In the case of `COc1ccc(C2CC(=O)c3c(O)c(OC)c(OC)c(OC)c3O2)c(O)c1` (stereo not drawn), the GI50 is reported as 0.232 µM and the TGI is reported as 88.8 µM. With `CC(=O)c1ccc(NC(=O)/C(Cc2ccccn2)=N/NC(=O)C[N+](C)(C)C)cc1` the TGI was > 100 µM. With `CCc1cccc(C)c1NC(C)=O` the TGI was > 100 µM.

These compounds were tested on CCRF-CEM leukemia (assay: DTP human tumour cell line panel, 48 h).
In the case of `COc1ccc(/C(=N/Nc2ccc([N+](=O)[O-])cc2)Sc2cc(Cl)c(C)cc2S(N)(=O)=O)cc1`, the GI50 is reported as 6.45 µM and the TGI is reported as 33.9 µM. Work on `NC(N)=NC(N)=Nc1cc2ccccc2c2ccccc12` yielded a GI50 of 8.61 µM and a TGI of 30.5 µM. With `CC12CCCC(CC(=O)c3[nH]c4ccccc4c31)C2` (stereo not drawn) the GI50 was 0.459 µM and the TGI was > 100 µM. In the case of `CN1C(NC(=O)c2ccc(Cl)nc2)=NS(=O)(=O)c2cc(Cl)ccc21`, the GI50 is reported as > 100 µM and the TGI is reported as > 100 µM. With `Cc1cc(C2CCCCC2)n(O)c(=O)c1` the TGI was 74.5 µM. For `COC(=O)C(=O)C(C(=O)C=C(C)C)C(=O)C(=O)Nc1ccc(Cl)cc1C` (stereo not drawn), the TGI was > 100 µM. In the case of `CC(=O)[O][Hg][c]1c(C)c(C)c(C)c(C)c1C`, the GI50 is reported as 0.895 µM and the TGI is reported as 9.71 µM. With `CN(C)C(=S)SN(C)C(=O)Nc1ccccc1` the TGI was > 91.1 µM. With `Cc1ccc(C(=O)/C=C/c2ccccc2O)c(C)c1` the TGI was > 100 µM. `COc1cc2c(/C=C3/C(=O)Nc4cccc(Cl)c43)c(Cl)n(Cc3ccccc3)c2cc1C` was tested, and the GI50 was 4.83 µM and the TGI was > 100 µM. In the case of `Cc1[nH]c(N=Nc2ccccc2)nc1N=Nc1ccccc1`, the GI50 is reported as 2.19 µM and the TGI is reported as > 25.3 µM. For `COc1ccc(-c2cc3c(nn2)-c2ccccc2C3=O)cc1`, the GI50 was 9.52 µM and the TGI was > 100 µM. With `N#Cc1cnsc1` the TGI was > 100 µM. `O=C1C2=C(CC3C(C2)C3(Br)Br)C(=O)C2=C1CC1C(C2)C1(Br)Br` (stereo not drawn) was tested, and the TGI was > 100 µM. Compound `COc1ccc(C2CC(=O)c3c(O)c(OC)c(OC)c(OC)c3O2)c(O)c1` (stereo not drawn) has a GI50 of 0.134 µM and a TGI of 31.5 µM. For `CC(=O)c1ccc(NC(=O)/C(Cc2ccccn2)=N/NC(=O)C[N+](C)(C)C)cc1`, the TGI was > 100 µM. For `CCc1cccc(C)c1NC(C)=O`, the TGI was > 100 µM.

The compounds below were run on SK-MEL-2 melanoma (assay: DTP human tumour cell line panel, 48 h).
`COc1ccc(/C(=N/Nc2ccc([N+](=O)[O-])cc2)Sc2cc(Cl)c(C)cc2S(N)(=O)=O)cc1` was tested, and the GI50 was 12.3 µM and the TGI was 34 µM. `NC(N)=NC(N)=Nc1cc2ccccc2c2ccccc12` gave a GI50 of 13.6 µM and a TGI of 30.5 µM. For `CC12CCCC(CC(=O)c3[nH]c4ccccc4c31)C2` (stereo not drawn), the GI50 was 1.91 µM and the TGI was > 59.1 µM. For `CN1C(NC(=O)c2ccc(Cl)nc2)=NS(=O)(=O)c2cc(Cl)ccc21`, the GI50 was > 100 µM and the TGI was > 100 µM. In the case of `Cc1cc(C2CCCCC2)n(O)c(=O)c1`, the GI50 is reported as 10.5 µM and the TGI is reported as > 100 µM and 65.6 µM. `COC(=O)C(=O)C(C(=O)C=C(C)C)C(=O)C(=O)Nc1ccc(Cl)cc1C` (stereo not drawn) was tested, and the TGI was > 100 µM. `CC(=O)[O][Hg][c]1c(C)c(C)c(C)c(C)c1C` was tested, and the GI50 was 1.41 µM and the TGI was 3.37 µM. `CN(C)C(=S)SN(C)C(=O)Nc1ccccc1` was tested, and the TGI was > 100 µM. With `Cc1ccc(C(=O)/C=C/c2ccccc2O)c(C)c1` the TGI was > 100 µM. Compound `COc1cc2c(/C=C3/C(=O)Nc4cccc(Cl)c43)c(Cl)n(Cc3ccccc3)c2cc1C` has a GI50 of 11 µM and a TGI of 68.2 µM. For `Cc1[nH]c(N=Nc2ccccc2)nc1N=Nc1ccccc1`, the GI50 was 3.59 µM and the TGI was 19.1 µM. `COc1ccc(-c2cc3c(nn2)-c2ccccc2C3=O)cc1` was tested, and the TGI was > 10 µM. In the case of `N#Cc1cnsc1`, the TGI is reported as > 100 µM. With `O=C1C2=C(CC3C(C2)C3(Br)Br)C(=O)C2=C1CC1C(C2)C1(Br)Br` (stereo not drawn) the TGI was > 100 µM. `COc1ccc(C2CC(=O)c3c(O)c(OC)c(OC)c(OC)c3O2)c(O)c1` (stereo not drawn) was tested, and the GI50 was 0.0809 µM and the TGI was 23.4 µM. With `CC(=O)c1ccc(NC(=O)/C(Cc2ccccn2)=N/NC(=O)C[N+](C)(C)C)cc1` the TGI was > 100 µM. In the case of `CCc1cccc(C)c1NC(C)=O`, the TGI is reported as > 100 µM.

The compounds below were run on HCT-116 colon (assay: DTP human tumour cell line panel, 48 h).
`COc1ccc(/C(=N/Nc2ccc([N+](=O)[O-])cc2)Sc2cc(Cl)c(C)cc2S(N)(=O)=O)cc1` gave a GI50 of 2.31 µM and a TGI of 5.48 µM.
